Test [1] addresses T1, COX-2 (Ovis aries, UniProt P79208).
T1 construct: isolated from sheep placenta, purity 70%; purchased Cayman Chemical Company; host or cells: sheep placenta (tissue isolate)
T1 sequence (P79208 17-603): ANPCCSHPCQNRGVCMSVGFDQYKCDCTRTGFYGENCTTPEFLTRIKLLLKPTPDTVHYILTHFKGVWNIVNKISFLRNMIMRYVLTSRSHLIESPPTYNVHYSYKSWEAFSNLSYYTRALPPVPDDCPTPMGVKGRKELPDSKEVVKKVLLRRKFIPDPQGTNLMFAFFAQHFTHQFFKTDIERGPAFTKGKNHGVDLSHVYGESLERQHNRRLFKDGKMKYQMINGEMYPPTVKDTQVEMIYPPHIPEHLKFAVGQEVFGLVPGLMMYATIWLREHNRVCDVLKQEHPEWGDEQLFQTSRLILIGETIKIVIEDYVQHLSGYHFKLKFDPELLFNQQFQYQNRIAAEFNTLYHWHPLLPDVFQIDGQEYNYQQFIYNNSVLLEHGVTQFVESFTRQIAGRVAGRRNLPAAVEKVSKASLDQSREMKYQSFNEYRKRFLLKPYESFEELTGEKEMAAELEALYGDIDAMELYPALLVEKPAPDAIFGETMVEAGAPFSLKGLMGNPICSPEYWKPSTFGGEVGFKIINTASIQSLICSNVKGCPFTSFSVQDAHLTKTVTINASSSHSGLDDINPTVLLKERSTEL
Briefly: COX-2-catalyzed prostaglandin biosynthesis assay in vitro. The class given is biochemical, sheep. The conditions noted are these: for inhibition at 10 µg/mL: 10 μg/mL, COX-2 from sheep placenta. The procedure: (§1) Experiments were performed according to Futaki et al. with modification. In brief, 200 U of COX-1 or COX-2 enzyme was suspended in 0.1 M Tris-HCl buffer (PH 7.5) containing hematin (1 μM) and phenol (2 mM), as co-factors. The reaction medium was preincubated with sample for 2 min at 37 °C, and 51.4 μM of […] arachidonic acid (Sigma, St. Louis, MO, USA) was added and incubated for 2 min at 37 °C. To terminate the reaction and extract PGE2, 400 μL of n-hexane/EtOAc (2:1, V/V) was added to the reaction mixture and the preparation was centrifuged at 2,000 rpm for 1 min. The organic solvent phase was discarded. The extraction procedure was repeated twice, then 50 μL EtOH was added to the aqueous phase, and the preparation was at 2,000 rpm for 1 min. The amount of PGE2 was measured by radioimmunoassay using a liquid scintillation counter. COX-1 (EC1.14.99.1, isolated from ram seminal vesicles; Cayman Chemical Company, Ann Arbor, MI, USA) and COX-2 (isolated from sheep placenta, purity 70%; Cayman Chemical Company) were used.

Test [2] deals with T2, 5-LO (Rattus norvegicus, UniProt P12527).
T2 construct: RBL-1 cell homogenate (1.5 × 10^7 cells); endogenous in cells; host or cells: RBL-1 (rat basophilic leukemia-1) cell homogenate
T2 sequence (P12527 1-673): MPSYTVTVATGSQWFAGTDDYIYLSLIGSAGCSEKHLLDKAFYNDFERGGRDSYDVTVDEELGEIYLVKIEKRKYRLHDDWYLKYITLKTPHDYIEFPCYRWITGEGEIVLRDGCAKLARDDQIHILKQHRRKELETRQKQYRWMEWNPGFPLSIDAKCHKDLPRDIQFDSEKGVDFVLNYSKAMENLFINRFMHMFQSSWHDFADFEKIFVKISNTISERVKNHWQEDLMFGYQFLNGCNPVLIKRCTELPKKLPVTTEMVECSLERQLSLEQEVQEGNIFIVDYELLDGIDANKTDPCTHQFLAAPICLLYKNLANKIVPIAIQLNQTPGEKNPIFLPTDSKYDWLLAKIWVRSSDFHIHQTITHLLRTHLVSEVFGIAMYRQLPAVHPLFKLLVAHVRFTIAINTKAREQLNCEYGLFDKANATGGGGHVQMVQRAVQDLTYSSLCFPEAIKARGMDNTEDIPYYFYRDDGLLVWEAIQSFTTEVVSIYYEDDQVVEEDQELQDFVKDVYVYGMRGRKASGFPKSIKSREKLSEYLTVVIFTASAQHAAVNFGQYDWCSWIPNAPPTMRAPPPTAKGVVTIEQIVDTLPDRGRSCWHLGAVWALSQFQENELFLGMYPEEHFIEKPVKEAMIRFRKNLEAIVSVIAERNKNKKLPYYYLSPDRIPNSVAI
Put plainly: Measurement of RBL-1 5-lipoxygenase activity. Conditions: RBL-1 cell homogenate; for IC50: triplicate five-point titration; for inhibition at 10 µg/mL: 10 μg/mL. The class given is biochemical. As to the method:
The modified method of Blackman et al. was used. Rat basophilic leukemia-1 (RBL-1) cells were grown in RPMI-1640 medium containing 10% heat-inactivated newborn calf serum (NCS), penicillin 100 units/mL, and streptomycin […]. Cells were cultured at 37 °C in 5% CO2. The assay system (0.5 mL) consisted of 50 mM phosphate buffer (pH 7.4), the test compound, 2 mM CaCl2, 0.66 mM arachidonic acid, and RBL-1 cell homogenate (1.5 × 10^7 cells). Reaction mixtures were incubated at 37 °C for 3 min, and then MeOH (0.5 mL) was added to terminate the reaction. The mixture was centrifuged to remove the precipitated proteins, 5-HETE in the supernatant was analyzed by HPLC. The mixture was eluted through a Cosmosil 5C18 column (4.6 × 150 mm) at room temperature with 85% CH3CN at 235 nm.

The target of test [3] is T3, COX-1 (Ovis aries, UniProt P05979).
T3 construct: isolated from ram seminal vesicles; purchased Cayman Chemical Company; host or cells: ram seminal vesicles (tissue isolate)
T3 sequence (P05979 25-600): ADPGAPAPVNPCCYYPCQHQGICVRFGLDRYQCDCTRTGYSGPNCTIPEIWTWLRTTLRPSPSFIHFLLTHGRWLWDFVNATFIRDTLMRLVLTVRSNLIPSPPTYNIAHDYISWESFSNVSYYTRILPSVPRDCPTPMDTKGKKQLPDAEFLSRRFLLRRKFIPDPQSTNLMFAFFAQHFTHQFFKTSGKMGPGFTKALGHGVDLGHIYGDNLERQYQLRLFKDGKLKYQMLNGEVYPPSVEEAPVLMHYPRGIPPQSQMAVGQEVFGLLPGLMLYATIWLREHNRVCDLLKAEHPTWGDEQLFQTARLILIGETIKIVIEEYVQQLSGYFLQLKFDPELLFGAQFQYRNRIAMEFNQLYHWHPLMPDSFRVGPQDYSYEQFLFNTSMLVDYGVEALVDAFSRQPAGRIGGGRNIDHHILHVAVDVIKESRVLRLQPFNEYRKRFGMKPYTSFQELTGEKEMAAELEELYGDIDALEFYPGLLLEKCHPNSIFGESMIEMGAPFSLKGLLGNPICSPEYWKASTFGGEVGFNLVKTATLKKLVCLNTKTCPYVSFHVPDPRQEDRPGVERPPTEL
Briefly: COX-1-catalyzed prostaglandin biosynthesis assay in vitro. Format: biochemical, ram. The conditions noted are these: for inhibition at 10 µg/mL: 10 μg/mL, COX-1 from ram seminal vesicles; for IC50: triplicate five-point titration. As to the method:
as §1

A word on the IC50: it is the point on the concentration scale where inhibition reaches its midpoint. For `C[C@]12c3c(ccc(O)c3C=C3C(CO)=CC(=O)[C@@H]31)O[C@@H]2O` [Compound 1], the “inhibitory activities against COX-2 (in words)” value in test [1] was “not apparent”. Also, in test [2], the IC50 is 15.1 µM.

What is called inhibition is the drop in the measured response relative to a control, in per cent. A low value points to little suppression. Turning to `CC(C)O[C@H]1Oc2ccc(O)c3c2[C@@]1(C)[C@H]1C(=O)C=C(CO)C1=C3` [Compound 1a, 5-hydroxy-7-hydroxymethyl-1-isopropoxy-9b-methyl-9a,9b-dihydro-H-2-oxa-cyclopenta[d]acenaphthylen-9-one], the inhibition at 10 µg/mL in test [3] is 90.5%; in test [1] it was 7.5%; in test [2], 84.7%. The values for the IC50 in test [3] and in test [2] were 47.7 µM and 15.1 µM, respectively.

For `C=C1CC[C@H]2[C@](C)(COC(C)=O)CCC[C@]2(C)[C@H]1CO[C@@H](C(=O)O)[C@H](CC(=O)O)C(=O)OC` [Compound 3, Cryptoporic acid P], the inhibition at 10 µg/mL turned out to be 40.2% in test [3], 1.7% in test [1] and 14.9% in test [2].

In the case of `C=C1CC[C@H]2[C@](C)(COC(C)=O)CCC[C@]2(C)[C@H]1CO[C@@H](C(=O)OC)[C@H](CC(=O)O)C(=O)OC` [Compound 4, Cryptoporic acid Q], the results for the inhibition at 10 µg/mL in test [3], in test [1] and in test [2] were 66.5%, 10.3% and 50.1%, respectively. In addition, the IC50 in test [3] was determined as 78.8 µM; in test [2], 204 µM.

Regarding `C=C1CC[C@H]2[C@](C)(CO)CCC[C@]2(C)[C@H]1CO[C@@H](C(=O)O)[C@H](CC(=O)O)C(=O)OC` [Compound 6, cryptoporic acid N], the inhibition at 10 µg/mL in test [3] came out at 35.8%; in test [1], 19%; in test [2], 28.9%.

The values are drawn from publication PMC6270288, “Yellow Pigments, Fomitellanols A and B, and Drimane Sesquiterpenoids, Cryptoporic Acids P and Q, from Fomitella fraxinea and Their Inhibitory Activity against COX and 5-LO” (Molecules, 2013).
